Source: patent US11395815B2, “Compound for treating osteoarthritis” (Ascentage Pharma (Suzhou) Co., Ltd., priority 2018, dated 2022)

Columns and labels:
mouse ACLT model [1] = experiment: Weight bearing test in mouse osteoarthritis (ACLT) model; type: in vivo; settings: for weight bearing % (weight on operated limb versus contralateral unoperated limb): 13 days after first dose
Text: C57BL/6 mice aged 10 weeks were used for the study (n=12 for each group). Anterior cruciate ligament transection (ACLT) model was used to simulate the pathological condition in OA. To conduct ACLT surgery, the joint capsule of the right rear limb of mice was opened, and the anterior cruciate ligament (ACL) was transected with micro-scissors under a surgical microscope. After irrigation with saline to remove tissue debris, the skin incision was closed. Blank vehicle contained 5% Pluronic F68 (BASF, Germany) in 10 mM phosphate buffered saline (PBS, NaH2PH4/Na2HPO4) with pH adjusted to 7.4. Before each injection and sacrificing at the end point, the function of the limbs was assessed by a weight bearing test. All the mice were sacrificed for pathological evaluation and immunohistochemical staining 13 days after first dosing. Weight bearing test was conducted using a […] model 600MR (IITC Life Science, CA, USA). Briefly, after calibration of the equipment, mice were placed inside the chamber to stand with each hind paw on a scale, allowed to stand for 5-10 s until the readings were stable. The readings reflected the weight that was placed on each hind limb. The ACLT surgery caused osteoarthritis (OA) and decreased the weight placed on the hind limb. The results were expressed as the percentage of the weight placed on the operated limb versus the contralateral unoperated limb (weight bearing %). The value of weight bearing % is expected to be 100 in healthy mice, indicating the same weight placed on both limbs. The value of weight bearing % will decrease to 50˜60 after ACLT surgery due to less weight that could be placed on the operated limb than the unoperated limb. Alleviation of joint pain by […] should be reflected by an increased value of weight bearing %.

mouse ACLT model [2] = experiment: Pathological evaluation of mouse joints (safranin O staining) in ACLT model; type: in vivo; settings: intra-articular, joints taken 13 days after first dosing, safranin O sections
Text: C57BL/6 mice aged 10 weeks were used for the study (n=12 for each group). Anterior cruciate ligament transection (ACLT) model was used to simulate the pathological condition in OA. To conduct ACLT surgery, the joint capsule of the right rear limb of mice was opened, and the anterior cruciate ligament (ACL) was transected with micro-scissors under a surgical microscope. After irrigation with saline to remove tissue debris, the skin incision was closed. Blank vehicle contained 5% Pluronic F68 (BASF, Germany) in 10 mM phosphate buffered saline (PBS, NaH2PH4/Na2HPO4) with pH adjusted to 7.4. Before each injection and sacrificing at the end point, the function of the limbs was assessed by a weight bearing test. All the mice were sacrificed for pathological evaluation and immunohistochemical staining 13 days after first dosing. Mouse joints were fixed in 4% paraformaldehyde overnight, dehydrated in increasing concentrations of ethanol and embedded in paraffin. Sections (5 μm) were cut from the paraffin blocks and applied to glass slides. The sections were stained for proteoglycans with aqueous safranin O (0.1%) for 5 min, and the specimens were then mounted.

CCN1[C@@H](C(=O)NC23CCC(C(=O)O)(CC2)CC3)[C@H](c2cccc(Cl)c2F)[C@]2(C(=O)Nc3cc(Cl)ccc32)C12CCCCC2 [compound A]
weight bearing % (weight on operated limb versus contralateral unoperated limb) (mouse ACLT model [1]; 0.01 μmol (1 mM, 10 uL) intra-articular, compared with untreated control (P<0.05) and vehicle control (P<0.0001)): significantly increased value of weight bearing %
weight bearing % (weight on operated limb versus contralateral unoperated limb) (mouse ACLT model [1]; 0.05 μmol (5 mM, 10 uL) intra-articular, P<0.05 vs 1 mM compound A group): further increase in the value of weight bearing %
weight bearing % (weight on operated limb versus contralateral unoperated limb) (mouse ACLT model [1]; C57BL/6 mice, ACLT, intra-articular injection, across doses 0.01 and 0.05 μmol): dose-dependent effect in improving weight bearing %
joint pain (mouse ACLT model [1]; mouse ACLT model, intra-articular injection): significantly relieved the joint pain
cartilage development (mouse ACLT model [2]): increased cartilage development
pathological changes (articular cartilage erosion, proteoglycan loss, thinning and calcification of articular cartilage) (mouse ACLT model [2]): attenuated
